The subject of assay [1] is P(40), P(80), S(80) cell fractions of Methylobacterium sp. (CRL-26, NRRL B-11,222). The assay can be described thus: Methane and propylene oxidation by cell fractions. The settings on record: 30° C. In kind it is biochemical. The protocol: (§1) Cells were washed twice with 25 mM potassium phosphate buffer, pH 7.0 containing 5 mM MgCl2. Cells were suspended in the same buffer. The cell suspensions at 4° C. were disintegrated by a single passage through a French Pressure cell (15,000 lb./in.^2) and centrifuged at 5000×g. for 15 min. to remove unbroken bacteria. The supernatant solution (crude extract) was then centrifuged at 40,000×g. for 30 min., yielding particulate P(40) and soluble S(40) fractions. The S(40) fraction was subsequently centrifuged at 80,000×g. for 60 min., yielding particulate P(80) and soluble S(80) fractions. The particulate fractions [P(40) and P(80)] were suspended in 25 mM potassium phosphate buffer, pH 7.0, containing 5 mM MgCl2 and homogenized at 4° C.
(§2) The oxidation of methane and propylene by particulate [(P)40 and (P)80] fractions and soluble [S(80)] fraction was measured at 30° C. by estimating the production of methanol and propylene oxide, respectively. The reaction mixtures contained in 1.0 ml: 150 mM potassium phosphate buffer, pH 7.0 containing 5 mM MgCl2, 0.6 ml; […] NADH, and cellular fraction.
(§3) Reaction mixtures were contained in 10 ml vials at 4° C. Vials were sealed with rubber caps. The gaseous phase in the vials was removed using vacuum and then was replaced with a gas mixture of methane or propylene and oxygen at a 1:1, v/v ratio. Oxidation of other gaseous n-alkanes and n-alkenes was examined as described above. For liquid substrates, 10 μl of substrate was used directly.
(§4) The products of epoxidation of n-alkenes and hydroxylation of n-alkanes were assayed by flame ionization gas chromatography using a stainless steel column (12'×1/8") packed with 10% Carbowax 20 M on 80/100 Chromosorb W and Porapak Q column. The column temperature was maintained isothermally at 120° C. The carrier gas flow rate was 30 ml/min. of helium. The various products were identified by retention time comparisons and co-chromatography with authentic standards.
(§5) Specific activities were expressed as μ moles of products formed per hour per mg. protein. Concentrations of protein in various fractions were determined by the method of Lowry et al., J. Biol. Chem. 193: 265-275 (1951).

The target of assay [2] is T1, P(40), P(80), S(80) cell fractions of Methylococcus capsulatus (Texas, ATCC 19,069) (Methylococcus capsulatus, UniProt G1UBD1+Q603F1+Q607G3).
T1 sequence (G1UBD1 33-414): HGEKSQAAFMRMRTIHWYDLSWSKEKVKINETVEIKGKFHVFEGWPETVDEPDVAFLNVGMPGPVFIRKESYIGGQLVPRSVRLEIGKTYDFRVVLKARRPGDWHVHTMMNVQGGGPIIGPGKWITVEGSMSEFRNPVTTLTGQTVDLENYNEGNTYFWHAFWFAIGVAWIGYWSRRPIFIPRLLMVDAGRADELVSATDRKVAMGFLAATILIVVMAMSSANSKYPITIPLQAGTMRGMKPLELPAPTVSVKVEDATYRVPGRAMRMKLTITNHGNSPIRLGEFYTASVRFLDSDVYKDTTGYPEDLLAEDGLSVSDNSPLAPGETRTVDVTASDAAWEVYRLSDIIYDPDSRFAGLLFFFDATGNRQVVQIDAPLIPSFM
T1 sequence (Q607G3 1-247): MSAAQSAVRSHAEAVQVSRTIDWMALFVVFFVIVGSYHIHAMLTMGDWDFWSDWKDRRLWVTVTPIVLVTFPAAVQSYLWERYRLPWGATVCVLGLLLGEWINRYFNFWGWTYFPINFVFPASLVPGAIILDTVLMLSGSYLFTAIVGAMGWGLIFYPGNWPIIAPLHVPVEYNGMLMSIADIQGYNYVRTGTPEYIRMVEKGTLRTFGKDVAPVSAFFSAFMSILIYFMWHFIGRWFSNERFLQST
T1 sequence (Q603F1 1-260): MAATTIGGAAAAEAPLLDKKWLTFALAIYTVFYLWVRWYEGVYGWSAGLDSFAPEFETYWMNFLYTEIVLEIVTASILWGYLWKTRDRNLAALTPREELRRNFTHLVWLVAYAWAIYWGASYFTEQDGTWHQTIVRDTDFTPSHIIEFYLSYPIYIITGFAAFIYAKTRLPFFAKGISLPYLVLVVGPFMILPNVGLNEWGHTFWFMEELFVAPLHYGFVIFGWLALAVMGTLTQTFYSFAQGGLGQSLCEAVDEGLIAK
The assay can be described thus: Methane and propylene oxidation by cell fractions. Format: biochemical. The protocol: as §1, §2, §3, §4, §5

Assay [3] concerns P(40), P(80), S(80) cell fractions of Methylomonas sp. (CRL-17, NRRL B-11,208). The assay can be described thus: Methane and propylene oxidation by cell fractions. In kind it is biochemical. The settings on record: 30° C. As to the method:
as §1, §2, §3, §4, §5

Assay [4] deals with P(40), P(80), S(80) cell fractions of Methylosinus trichosporium (OB3b, NRRL B-11,196). The assay can be described thus: Methane and propylene oxidation by cell fractions. Format: biochemical. The settings on record: S(80) fraction, 30° C. The protocol:
as §1, §2, §3, §4, §5

Assay [5] concerns Methylococcus capsulatus (CRL M1, NRRL B-11,219). The assay can be described thus: Oxidation/epoxidation by washed cell suspensions. Format: cell-based.

The structures appear in SMILES notation.

Turning to `C` [Methane], the “Methane-Oxidizing Activity, P(40)” value in assay [1] (P(40) fraction) is 2.7 μmoles of product formed per h; in assay [2] (P(40) fraction, 30° C.), 3.8 μmoles of product formed per h; in assay [3] (P(40) fraction), 2.9 μmoles of product formed per h. Also, the “Methane-Oxidizing Activity, P(80)” value is on record as 2.8 μmoles of product formed per h in assay [1] (P(80) fraction); 3.9 μmoles of product formed per h in assay [2] (P(80) fraction, 30° C.); 2.7 μmoles of product formed per h in assay [3] (P(80) fraction). Further, the “Methane-Oxidizing Activity, S(80)” value in assay [1] (S(80) fraction) is 0 μmoles of product formed per h; in assay [2] (S(80) fraction, 30° C.), 0 μmoles of product formed per h; in assay [3] (S(80) fraction), 0 μmoles of product formed per h; in assay [4] it was 0 μmoles of product formed per h. Besides, in assay [2] (P(40) fraction), the “% Distribution in Cell Fraction, Methane-Hydroxylating Activity, P(40)” value is 90%. Also, in assay [2] (P(80) fraction), the “% Distribution in Cell Fraction, Methane-Hydroxylating Activity, P(80)” value is listed as 10%. Moreover, the “% Distribution in Cell Fraction, Methane-Hydroxylating Activity, S(80)” value in assay [2] (S(80) fraction) is 0%. For the same molecule, the “Epoxidation Rate, Propylene oxide” value in assay [5] (Propylene + 5% methane, 1 Hr) was determined as 2.0 μmoles/0.5 ml; in assay [5] (Propylene + 5% methane, 2 Hr), 4.0 μmoles/0.5 ml; in assay [5] (Propylene + 5% methane, 3 Hr) it was 4.1 μmoles/0.5 ml; in assay [5] (Propylene + 7% methane, 1 Hr), 2.3 μmoles/0.5 ml; in assay [5] (Propylene + 7% methane, 2 Hr), 4.7 μmoles/0.5 ml; in assay [5] (Propylene + 7% methane, 3 Hr), 4.8 μmoles/0.5 ml. Further, the “Epoxidation Rate, Propylene oxide” value is given as 3.5 μmoles/0.5 ml in assay [5] (Propylene + 15% methane, 1 Hr); 6.4 μmoles/0.5 ml in assay [5] (Propylene + 15% methane, 2 Hr); 6.5 μmoles/0.5 ml in assay [5] (Propylene + 15% methane, 3 Hr); 3.8 μmoles/0.5 ml in assay [5] (Propylene + 20% methane, 1 Hr); 7.1 μmoles/0.5 ml in assay [5] (Propylene + 20% methane, 2 Hr); 7.2 μmoles/0.5 ml in assay [5] (Propylene + 20% methane, 3 Hr). The “Inhibition of epoxidation of propylene to propylene oxide” value in assay [5] (cell suspension, in the presence of methane) is reported as 50%.
As for `C=CC` [Propylene], the “Propylene-Oxidizing Activity, P(40)” value in assay [1] (P(40) fraction) is given as 1.2 μmoles of product formed per h; in assay [2] (P(40) fraction, 30° C.) it was 2.6 μmoles of product formed per h; in assay [3] (P(40) fraction) it was 2.2 μmoles of product formed per h. Besides, the “Propylene-Oxidizing Activity, P(80)” value in assay [1] (P(80) fraction) was 1.1 μmoles of product formed per h; in assay [2] (P(80) fraction, 30° C.) it was 2.0 μmoles of product formed per h; in assay [3] (P(80) fraction), 2.0 μmoles of product formed per h. In addition, the “Propylene-Oxidizing Activity, S(80)” value in assay [1] (S(80) fraction) is reported as 0 μmoles of product formed per h; in assay [2] (S(80) fraction, 30° C.), 0 μmoles of product formed per h; in assay [3] (S(80) fraction), 0 μmoles of product formed per h; in assay [4], 0 μmoles of product formed per h. For the same molecule, the “% Distribution in Cell Fraction, Propylene-Epoxidizing Activity, P(40)” value in assay [2] (P(40) fraction) was found to be 89%. In assay [2] (P(80) fraction), the “% Distribution in Cell Fraction, Propylene-Epoxidizing Activity, P(80)” value is listed as 11%. In assay [2] (S(80) fraction), the “% Distribution in Cell Fraction, Propylene-Epoxidizing Activity, S(80)” value amounted to 0%. The “Epoxidation Rate, Propylene oxide” value in assay [5] (propylene alone (control), 1 Hr, 50% O2) was 2.0 μmoles/0.5 ml; in assay [5] (propylene alone (control), 2 Hr), 3.8 μmoles/0.5 ml.
